The values below come from patent USRE38009E1, “Zeaxanthin formulations for human ingestion” (Zeavision LLC, priority 1995, dated 2003).

The data set in a line: Storage of purified zeaxanthin powder for roughly six months unprotected, chiral column chromatography analysis. The class given is physicochemical. The note with it: relatively unprotected, normal refrigeration, no anti-oxidants, no protection from atmospheric oxygen, fresh preparation at least 98% pure.

Text: After roughly six months of storage in a relatively unprotected state (usually under normal refrigeration with moderately frequent removal; without containing any anti-oxidants, and without taking any precautions to prevent contact by atmospheric oxygen), a sample of the zeaxanthin preparation was sent for stereoisomeric analysis to Prof.

Take `CC1=C(/C=C/C(C)=C/C=C/C(C)=C/C=C/C=C(C)/C=C/C=C(C)/C=C/C2=C(C)C[C@@H](O)CC2(C)C)C(C)(C)C[C@H](O)C1` [Zeaxanthin, zeaxanthin]: the “Zeaxanthin content of preparation after storage” value is 92%.
